Source: US20070167403A1, “Remedy for spinal canal stenosis” (priority 2003, published 2007)

Test system: rat
Type: in vivo
Conditions: intravenous administration
Protocol: It has been confirmed that the compounds used in the present invention have low toxicity and are sufficiently safe for use as pharmaceutical preparations. For example, the maximal tolerated dose of the compound A (lysine salt of (5Z,9β,11α,13E)-17,17-propano-11,16-dihydroxy-9-chloro-20-norprosta-5,13-dienoic acid) in the compound represented by formula (I) used in the present invention was 30 mg/kg weight or more for rat intravenous administration.

Molecule `CCC1(C(O)CC=CC2C(O)CC(Cl)C2CC=CCCCC(=O)O)CCC1.NCCCCC(N)C(=O)O` (stereo not drawn) [Compound A, (5Z,9β,11α,13E)-17,17-propano-11,16-dihydroxy-9-chloro-20-norprosta-5,13-dienoic acid lysine salt] has a maximal tolerated dose of at least 30 mg/kg weight.
